Assay results taken from ChEMBL document CHEMBL1201862, “PubChem BioAssay data set” (2004).
Activity calls are given as the source filed them.

Columns and labels:
[1] = system: HEK293; assay: cells; format: functional, cell-based; details: Homo sapiens
[2] = biological target: Nuclear receptor subfamily 0 group B member 1 (Homo sapiens, UniProt P51843); assay: Luminescence-based cell-based high throughput dose response assay for inhibitors of the orphan nuclear receptor subfamily 0, group B, member 1 (DAX1; NR0B1). [Related pubchem assays (depositor defined):AID504766, AID504790]; format: functional
Nuclear receptor subfamily 0 group B member 1, sequence (P51843 whole entry): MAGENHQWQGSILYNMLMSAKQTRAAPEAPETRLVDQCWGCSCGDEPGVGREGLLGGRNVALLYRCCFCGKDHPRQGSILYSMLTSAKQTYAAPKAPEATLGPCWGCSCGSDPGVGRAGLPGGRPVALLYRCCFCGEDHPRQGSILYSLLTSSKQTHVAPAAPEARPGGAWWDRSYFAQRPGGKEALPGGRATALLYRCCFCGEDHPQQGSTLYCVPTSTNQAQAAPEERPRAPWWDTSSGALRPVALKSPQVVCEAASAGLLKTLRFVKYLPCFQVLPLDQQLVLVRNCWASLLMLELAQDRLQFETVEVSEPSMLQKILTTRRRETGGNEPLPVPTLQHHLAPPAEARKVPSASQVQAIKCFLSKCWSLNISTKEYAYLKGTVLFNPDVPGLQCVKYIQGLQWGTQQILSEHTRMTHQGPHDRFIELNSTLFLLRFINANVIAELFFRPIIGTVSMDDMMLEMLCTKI

[3] = biological target: E3 ubiquitin-protein ligase Mdm2 (Homo sapiens, UniProt Q00987); assay: MDM2-luc reporter signal enhancers, multi-concentration potency testing, MDM2 ubiquitin-protein ligase inhibitor program, whole-cell format, luminescence detection, 384-well microplate (AID 1394); format: functional;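 also: MDM2 E3 inhibitors raise luminescence so EC50 is for signal enhancement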
E3 ubiquitin-protein ligase Mdm2, sequence (Q00987 whole entry): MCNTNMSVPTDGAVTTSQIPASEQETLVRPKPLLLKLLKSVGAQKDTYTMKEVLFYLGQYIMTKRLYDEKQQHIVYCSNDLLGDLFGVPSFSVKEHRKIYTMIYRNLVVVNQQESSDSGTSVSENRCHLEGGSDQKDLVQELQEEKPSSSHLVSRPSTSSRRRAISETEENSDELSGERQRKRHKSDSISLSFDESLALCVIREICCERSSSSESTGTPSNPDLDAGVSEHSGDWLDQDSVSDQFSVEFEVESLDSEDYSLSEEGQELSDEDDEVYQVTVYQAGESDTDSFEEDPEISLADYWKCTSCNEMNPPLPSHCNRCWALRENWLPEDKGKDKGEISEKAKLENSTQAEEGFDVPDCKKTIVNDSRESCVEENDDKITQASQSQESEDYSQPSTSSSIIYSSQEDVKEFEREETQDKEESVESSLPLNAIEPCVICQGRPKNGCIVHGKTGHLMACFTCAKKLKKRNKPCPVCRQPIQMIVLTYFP

[4] = biological target: Induced myeloid leukemia cell differentiation protein Mcl-1 (Homo sapiens, UniProt Q07820); format: functional
Induced myeloid leukemia cell differentiation protein Mcl-1, sequence (Q07820 whole entry): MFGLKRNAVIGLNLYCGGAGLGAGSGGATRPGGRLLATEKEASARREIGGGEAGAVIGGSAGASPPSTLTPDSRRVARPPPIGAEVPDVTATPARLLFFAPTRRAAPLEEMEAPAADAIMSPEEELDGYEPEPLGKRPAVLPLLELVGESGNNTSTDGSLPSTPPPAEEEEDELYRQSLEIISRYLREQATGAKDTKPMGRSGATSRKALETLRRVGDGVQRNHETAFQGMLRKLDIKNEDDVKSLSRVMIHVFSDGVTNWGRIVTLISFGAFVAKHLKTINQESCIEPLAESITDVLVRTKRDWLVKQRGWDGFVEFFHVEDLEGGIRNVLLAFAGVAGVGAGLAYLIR

[5] = system: Vero; assay: viability of Vero cells under compound – cytotoxicity control for flavivirus capping enzyme inhibitors (AID 588742); format: functional; details: Chlorocebus sabaeus
[6] = biological target: Beta-arrestin-1 (Homo sapiens, UniProt P49407); assay: beta-arrestin/AP2 interaction blockers, potency – biochemical, cherry pick 1, beta2-adaptin appendage, flow cytometry, dose response (AID 588783); format: functional
Beta-arrestin-1, sequence (P49407 whole entry): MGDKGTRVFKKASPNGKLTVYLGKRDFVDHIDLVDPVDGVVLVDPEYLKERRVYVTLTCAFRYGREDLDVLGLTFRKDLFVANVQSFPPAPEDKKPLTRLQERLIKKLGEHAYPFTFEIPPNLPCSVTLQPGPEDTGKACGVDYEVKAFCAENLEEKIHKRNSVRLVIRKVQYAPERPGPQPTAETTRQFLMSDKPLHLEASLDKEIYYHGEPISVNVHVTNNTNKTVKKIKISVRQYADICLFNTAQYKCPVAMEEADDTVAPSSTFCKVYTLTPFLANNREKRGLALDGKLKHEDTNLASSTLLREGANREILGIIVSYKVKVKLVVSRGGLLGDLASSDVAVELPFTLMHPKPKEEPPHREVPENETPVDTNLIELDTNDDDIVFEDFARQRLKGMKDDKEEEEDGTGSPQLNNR

[7] = biological target: Genome polyprotein (dengue virus type 2, UniProt P29990); assay: flavivirus cap methylation enzyme inhibition – biochemical, confirmation dose response, primary screen (AID 588689); format: functional
Genome polyprotein, sequence (P29990 2492-3391 limits assumed): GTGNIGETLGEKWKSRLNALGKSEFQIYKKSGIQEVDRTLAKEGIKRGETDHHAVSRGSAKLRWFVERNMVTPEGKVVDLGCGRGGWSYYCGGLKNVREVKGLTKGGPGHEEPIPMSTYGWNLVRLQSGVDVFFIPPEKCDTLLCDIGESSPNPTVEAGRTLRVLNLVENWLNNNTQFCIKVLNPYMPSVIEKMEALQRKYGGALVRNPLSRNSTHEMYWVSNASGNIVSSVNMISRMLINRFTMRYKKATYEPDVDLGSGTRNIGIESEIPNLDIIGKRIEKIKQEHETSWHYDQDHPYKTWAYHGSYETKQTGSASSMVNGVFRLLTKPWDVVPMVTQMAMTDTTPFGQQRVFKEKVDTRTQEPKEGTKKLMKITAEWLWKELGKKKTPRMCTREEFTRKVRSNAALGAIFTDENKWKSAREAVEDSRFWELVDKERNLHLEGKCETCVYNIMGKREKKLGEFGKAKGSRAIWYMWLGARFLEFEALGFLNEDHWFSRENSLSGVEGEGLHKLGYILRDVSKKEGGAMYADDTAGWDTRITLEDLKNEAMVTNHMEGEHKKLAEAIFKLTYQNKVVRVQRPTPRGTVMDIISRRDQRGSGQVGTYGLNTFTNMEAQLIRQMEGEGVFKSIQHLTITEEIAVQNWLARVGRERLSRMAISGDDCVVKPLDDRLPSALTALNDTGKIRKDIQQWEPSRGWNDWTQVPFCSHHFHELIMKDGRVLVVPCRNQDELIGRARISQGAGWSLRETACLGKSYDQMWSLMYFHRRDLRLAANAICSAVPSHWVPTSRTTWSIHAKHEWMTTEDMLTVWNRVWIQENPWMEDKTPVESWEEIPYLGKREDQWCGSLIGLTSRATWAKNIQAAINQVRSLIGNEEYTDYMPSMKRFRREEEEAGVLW

[8] = viability loss in HeLa cells – cytotoxicity control for MgcRacGAP inhibitor project, dose response (AID 624300); format: functional
[9] = viability loss in THP-1 monocytes – THP-1 cells, cytotoxicity control for Vif-APOBEC3G degradation inhibitor project, dose response (AID 1117359); format: functional; details: THP-1

For `COc1ccccc1NC(=O)Nc1ccc2c(c1)OCCO2`, the IC50 [1] was > 67.5 µM (inactive) and the IC50 [2] was > 67.5 µM (inactive).

For `Cc1cccc2c1c1ccc3c(c1n2C)C(=O)C=CC3=O`, the EC50 [3] was 1.03 µM (active), the IC50 [4] was 3.22 µM (active) and the CC50 [5] was 34.7 µM (active). For the same compound, the IC50 [6] was 7.34 µM (active), the IC50 [7] was 33.5 µM (active) and the CC50 [8] was 100 µM (active). The CC50 [9] was 14.1 µM (active).
